This experiment concerns the target T1, human A3R (Homo sapiens, UniProt P0DMS8).
T1 sequence (P0DMS8 1-318): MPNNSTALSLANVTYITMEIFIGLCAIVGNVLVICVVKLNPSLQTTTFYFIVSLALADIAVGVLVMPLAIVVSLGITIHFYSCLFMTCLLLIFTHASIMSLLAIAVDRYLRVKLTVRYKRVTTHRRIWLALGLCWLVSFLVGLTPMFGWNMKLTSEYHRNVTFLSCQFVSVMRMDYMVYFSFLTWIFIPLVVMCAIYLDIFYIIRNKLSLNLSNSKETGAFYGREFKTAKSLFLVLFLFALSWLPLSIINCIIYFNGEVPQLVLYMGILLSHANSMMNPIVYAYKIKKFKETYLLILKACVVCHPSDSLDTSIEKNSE
As to the kind of experiment: TGFα shedding assay, human A3R WT. Format: cell-based. The conditions noted are these: for activation of A3R (in words): human A3R.

1-methyladenosine [m^1A]: the “activation of A3R (in words)” value is “can also induce A3R activation”. In addition, the “potency towards all four adenosine receptors (in words)” value (A1R, A2AR, A2BR, A3R) is “weak and non-selective potency”. For `CC(C)=CCNc1ncnc2c1ncn2[C@@H]1O[C@H](CO)[C@@H](O)[C@H]1O` [i6A, N6-Isopentenyladenosine], the “activation of A3R (in words)” value is “selectively activates A3R”. In addition, where the note is “A3R”, the “calculated intrinsic activity (RAi) relative to adenosine” value is listed as 59%. On the same counts, the results for `CN(C)c1ncnc2c1ncn2[C@@H]1O[C@H](CO)[C@@H](O)[C@H]1O` [m6,6A, N6,N6-Dimethyladenosine] are “very weak activation of A3R” and 7%.

Take `C[C@@H](O)[C@H](NC(=O)Nc1ncnc2c1ncn2[C@@H]1O[C@H](CO)[C@@H](O)[C@H]1O)C(=O)O` [t6A, N6-Threonylcarbamoyladenosine]: the “activation of A3R (in words)” value is “did not show any potency on A3R”.
